The source of these data is US9072676B2, “Cyclohexyl carbamate compounds as skin and/or hair lightening actives” (SYMRISE AG, priority 2010, dated 2015).

For the first test, the system named is B16V mouse melanoma cells. The test is described as follows: Depigmenting effect on melanoma cell cultures (inhibition of pigmentation). The format is cell-based. The settings on record: 96 h, read-out: IC50 (concentration at which pigmentation is inhibited by 50%). As to the method: B16V mouse melanoma cells are disseminated in a 96-well microtitre plate in a concentration of 5×10^3 cells/well. After cultivation for 24 h at 37° C. and 5% CO2 in RPMI medium, enriched with 10% foetal calf serum, various concentrations of the test substances and 0.3 mM tyrosine and 10 nM α-MSH (α-melanocyte stimulating hormone) are added and incubated for a further 96 h. The maximum concentration of the test substances used corresponds to 0.1 times the value of the IC20 value of the cytotoxicity assay. Standards are incubated with kojic acid in concentrations of 0.01 mM, 0.1 mM and 1 mM in addition to tyrosine and α-MSH. Only tyrosine and α-MSH are added to the controls. After incubation, sodium lauryl sulfate and sodium hydroxide solution (final concentrations: 1 mM and 1 M respectively) are added to the culture medium and the absorption (A) is measured after 3 h at 400 nm.
The inhibition of pigmentation in the presence of the test compounds or kojic acid was calculated using the following equation: Inhibition of pigmentation (%)=100−[(Atest compound/Acontrol)×100] wherein
Atest compound=absorption of the wells with test substance and with cells
Acontrol=absorption of the wells without test substance, but with cells
From the inhibition of pigmentation (%) in a series of dilutions of test compounds, the IC50 for each test compound is calculated. This is the concentration of a test compound at which pigmentation is inhibited by 50%.
In the case of `CCNC(=O)OC1CC(C)CC(C)(C)C1` (centres unmarked) [BIO1572, Ethyl-carbamic acid 3,3,5-trimethyl-cyclohexyl ester], the IC50 was found to be 63.1 µM.

Regarding `CCNC(=O)OC1CC2CCC1(C)C2(C)C` (centres unmarked) [BIO1573, Ethyl-carbamic acid 1,7,7-trimethyl-bicyclo[2.2.1]hept-2-yl ester], the IC50 is 74.9 µM. Same read-out and setting: under `COCCCNC(=O)OC1CC(C)CC(C)(C)C1` (centres unmarked) [BIO1574, (3-Methoxy-propyl)-carbamic acid 3,3,5-trimethyl-cyclohexyl ester] stands 9.5 µM.

Still in this test, the particulars now being: B16V cells, 0.3 mM tyrosine and 10 nM α-MSH, 96 h incubation, absorption at 400 nm, read-out: IC50 (concentration at which pigmentation is inhibited by 50%).
Take `C=C(C)C1CCC(C)CC1OC(=O)NCC` (centres unmarked) [BIO1551, Ethyl-carbamic acid 2-isopropenyl-5-methyl-cyclohexyl ester]: the IC50 was 40.9 µM. Consider `CCNC(=O)OC1CC(C)CC(C)C1` (centres unmarked) [BIO1561, Ethyl-carbamic acid 3,5-dimethyl-cyclohexyl ester], for which the IC50 worked out at 32.7 µM. On to `C=C(C)C1CCC(C)CC1OC(=O)NCCCC` (centres unmarked) [BIO1615, Butyl-carbamic acid 2-isopropenyl-5-methyl-cyclohexyl ester], for which the IC50 came out at 43 µM. Still for that read-out and setting: under `CCCCNC(=O)OC1CC(C)CC(C)(C)C1` (centres unmarked) [BIO1616, n-Butyl-carbamic acid 3,3,5-trimethyl-cyclohexyl ester] stands 10.9 µM; under `CCCCNC(=O)OC1C(C)CCC(C)C1C` (centres unmarked) [BIO1617, n-Butyl-carbamic acid 2,3,6-trimethyl-cyclohexyl ester], 15.4 µM; under `CC1CC(OC(=O)Nc2ccccc2O)CC(C)(C)C1` (centres unmarked) [BIO1642, (2-Hydroxy-phenyl)-carbamic acid 3,3,5-trimethyl-cyclohexyl ester], 5.6 µM. Still for that read-out and setting: under `CC1CCCC(OC(=O)Nc2ccccc2O)C1C` (centres unmarked) [BIO1643, (2-Hydroxy-phenyl)-carbamic acid 2,3-dimethyl-cyclohexyl ester] stands 0.7 µM; under `CC(C)C1CCCCC1OC(=O)Nc1ccccc1O` (centres unmarked) [BIO1646, (2-Hydroxy-phenyl)-carbamic acid 2-isopropyl-cyclohexyl ester], 4.7 µM.

Regarding `CC1CC(C)CC(OC(=O)Nc2ccccc2)C1` (centres unmarked) [BIO1685, Phenyl-carbamic acid 3,5-dimethyl-cyclohexyl ester], the IC50 was 18.9 µM. Still for that read-out and setting: to `CC1CCCCC1NC(=O)OC1CCC(C(C)(C)C)CC1` (centres unmarked) [BIO1690, (2-Methyl-cyclohexyl)-carbamic acid 4-tert-butyl-cyclohexyl ester] belongs 10.9 µM. The same measure, in the same setting: to `CCN(CC)C(=O)OC1C(C)CCC(C)C1C` (centres unmarked) [BIO1692, Diethyl-carbamic acid 2,3,6-trimethyl-cyclohexyl ester] belongs 41.7 µM; to `CCN(CC)C(=O)OC1CCCCC1C(C)C` (centres unmarked) [BIO1694, Diethyl-carbamic acid 2-isopropyl-cyclohexyl ester], 38.5 µM. The same measure, in the same setting: to `COc1ccccc1NC(=O)OC1C(C)CCC(C)C1C` (centres unmarked) [BIO1701, (2-Methoxy-phenyl)-carbamic acid 2,3,6-trimethyl-cyclohexyl ester] belongs 10.2 µM; to `COc1ccccc1NC(=O)OC1CC(C)CC(C)(C)C1` (centres unmarked) [BIO1703, (2-Methoxy-phenyl)-carbamic acid 3,3,5-trimethyl-cyclohexyl ester], 25.1 µM.

On to `CCCC1CCC(OC(=O)NCCCC(OCC)OCC)CC1` (centres unmarked) [BIO1707, (4,4-Diethoxy-butyl)-carbamic acid 4-propyl-cyclohexyl ester], for which the IC50 amounted to 12.7 µM. The same measure, in the same setting: to `CC(C)(C)C1CCCCC1OC(=O)Nc1ccccc1` (centres unmarked) [BIO1740, Phenyl-carbamic acid 2-tert-butyl-cyclohexyl ester] belongs 5.5 µM. The same measure, in the same setting: to `O=C(Nc1ccccc1)OC1CCCCC1` [BIO1741, Phenyl-carbamic acid cyclohexyl ester] belongs 12.9 µM; to `COc1ccccc1NC(=O)OC1CCCCC1C(C)C` (centres unmarked) [BIO1744, (2-Methoxy-phenyl)-carbamic acid 2-isopropyl-cyclohexyl ester], 18.3 µM; to `Cc1ccc(NC(=O)OC2CC(C)CC(C)C2)cc1` (centres unmarked) [BIO1822, p-Tolyl-carbamic acid 3,5-dimethyl-cyclohexyl ester], 52.5 µM. The same measure, in the same setting: under `Cc1ccc(NC(=O)OC2CCCCC2C(C)C)cc1` (centres unmarked) [BIO1824, p-Tolyl-carbamic acid 2-isopropyl-cyclohexyl ester] stands 4.7 µM; under `Cc1ccc(NC(=O)OC2CCCC(C)C2)cc1` (centres unmarked) [BIO1825, p-Tolyl-carbamic acid 3-methyl-cyclohexyl ester], 72.5 µM. For the compound `CCCCNC(=O)OC1CC(C)CC(C)C1` (centres unmarked) [BIO1840, n-Butyl-carbamic acid 3,5-dimethyl-cyclohexyl ester], the IC50 came to 89.5 µM. Same read-out and setting: to `CCCCNC(=O)OC1CCCCC1C(C)C` (centres unmarked) [BIO1841, Butyl-carbamic acid 2-isopropyl-cyclohexyl ester] belongs 28.5 µM. For `CCCCNC(=O)OC1CCCC(C)C1C` (centres unmarked) [BIO1842, Butyl-carbamic acid 2,3-dimethyl-cyclohexyl ester], the IC50 was found to be 94.1 µM. Take `CCC(C)NC(=O)OC1CC(C)CC(C)(C)C1` (centres unmarked) [BIO1844, sec-Butyl-carbamic acid 3,3,5-trimethyl-cyclohexyl ester]: the IC50 was 219 µM. On the same count and under the same terms, to `CCCCCCNC(=O)OC1CC(C)CC(C)(C)C1` (centres unmarked) [BIO1850, n-Hexyl-carbamic acid 3,3,5-trimethyl-cyclohexyl ester] belongs 14.3 µM; to `OC[C@H]1O[C@@H](Oc2ccc(O)cc2)[C@H](O)[C@@H](O)[C@@H]1O` [beta-Arbutin, reference compound], 67 µM.

The subject of a further test is Pigmented pig skin. The test is described as follows: Depigmenting effect on ex vivo skin (melanin granules, Fontana-Masson stain, image analysis). The format is tissue-based. The following applies: 0.5 wt.% in O/W emulsion, applied topically, 6 days. The method, then: Pigmented pig skin was excised from animals (slaughtered for meat production; the pig skin model included the subcutis fat layer as described in EP 1 939 27), cut into 4×4×3 mm pieces (length×width×height) and placed in culture at the air-liquid interface on a sterilized cotton pad soaked with 5 ml of customized DMEM (Dulbecco's Modified Eagle Medium). Assays were started 24 h after sample acclimatization at 37° C., 5% CO2. O/W emulsions (as described in more detail below) without (=control) and with the test compounds, respectively, were applied topically and incubated for 6 days. Histological sections were prepared and melanin granules stained by Fontana-Masson technique. The granules were quantified by image analysis.
The O/W emulsions used had the following composition:
Phases A and B are heated to 70° C. separately. Pemulen TR1 as well as Ultrez-21 are dispersed in phase B when heated to 70° C. Phase B/C is added to phase A by mixing with an Ultra Turrax, followed by emulsifying. Phase D is slowly added to phase A/B/C using a paddle mixer and a pH 5.5-6 is adjusted. The formulation is cooled down while mixing with a paddle mixer. Phase E is prepared by dissolving one or more compounds of formula (I) in Hydrolite-5. Subsequently, phase E is added to the mixture of phase A-D.
Turning to `CC1CCCC(OC(=O)Nc2ccccc2O)C1C` (centres unmarked) [BIO1643, (2-Hydroxy-phenyl)-carbamic acid 2,3-dimethyl-cyclohexyl ester], the “Melanin score vs. Control” value is on record as −26%. Consider `COc1ccccc1NC(=O)OC1CC(C)CC(C)(C)C1` (centres unmarked) [BIO1703, (2-Methoxy-phenyl)-carbamic acid 3,3,5-trimethyl-cyclohexyl ester], for which the “Melanin score vs. Control” value is listed as −37%.

Staying with this test, now noted: 1 wt.% in O/W emulsion, applied topically, 6 days.
As for `CCNC(=O)OC1CC(C)CC(C)C1` (centres unmarked) [BIO1561, Ethyl-carbamic acid 3,5-dimethyl-cyclohexyl ester], the “Melanin score vs. Control” value is reported as −26%.

As for `O=C(Nc1ccccc1)OC1CCCCC1` [BIO1741, Phenyl-carbamic acid cyclohexyl ester], the “Melanin score vs. Control” value is given as −28%.

As for `Cc1ccc(NC(=O)OC2CCCCC2C(C)C)cc1` (centres unmarked) [BIO1824, p-Tolyl-carbamic acid 2-isopropyl-cyclohexyl ester], the “Melanin score vs. Control” value is given as −44%.
